Patent US11306075B2, “Benzofuran, benzothiophene, and indole analogs that inhibit the formation of tau oligomers and their method of use” (OLIGOMERIX INC., priority 2016, dated 2022)
Structures can show the parent of a compound that is named as a salt.

The compounds below were run against recombinant human tau 4R2N (Homo sapiens (Human), UniProt P10636) (assay: Confirmatory Assay (CONFA), SDS-PAGE quantification of tau monomer and oligomers). Conditions: tau target 300 nM, Tris-HCl pH 7.4, room temperature 3 hours, compound 0.098 uM-50 uM.
Chain of recombinant human tau 4R2N (P10636 other isoform, or with tags, fused parts or gaps): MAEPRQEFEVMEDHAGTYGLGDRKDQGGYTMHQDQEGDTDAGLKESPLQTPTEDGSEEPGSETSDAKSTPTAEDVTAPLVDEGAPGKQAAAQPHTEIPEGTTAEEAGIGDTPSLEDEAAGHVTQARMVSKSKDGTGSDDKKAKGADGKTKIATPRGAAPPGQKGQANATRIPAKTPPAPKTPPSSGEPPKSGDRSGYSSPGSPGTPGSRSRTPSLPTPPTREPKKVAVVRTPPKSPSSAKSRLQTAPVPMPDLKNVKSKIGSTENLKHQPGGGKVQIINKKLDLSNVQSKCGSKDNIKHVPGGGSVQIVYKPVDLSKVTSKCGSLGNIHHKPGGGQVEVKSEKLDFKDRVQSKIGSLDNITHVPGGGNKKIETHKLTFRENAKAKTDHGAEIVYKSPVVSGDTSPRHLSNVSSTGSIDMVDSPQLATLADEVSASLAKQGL
Format: biochemical
Protocol: Bacterial recombinant human tau 4R2N (the largest isoform of tau in the central nervous system, 441 amino acids in length, Seq ID 1) constructs with either 6×-His or StrepII N-terminal epitope tags were purified from bacterial lysate using denaturing conditions to prepare tau in its monomeric form.
CONFA Assay: Confirmatory Assay (CONFA) used as a secondary screen for confirming the mechanism of action of compounds identified as hits using the ALA assay. The assay is performed using a similar procedure as ALA except that it utilizes SDS-PAGE for visualization and quantification of tau monomer and aggregated species (dimer, trimer, tetramer, pentamer, etc.). Only a single construct of tau without epitope tags is necessary, but the assay can use the same target prepared for the ALA assay also.
For the CONFA assay, Tau target (300 nM) was prepared in buffer (Tris-HCl pH 7.4) and was incubated at room temperature for 3 hours with vehicle control (DMSO) and a dose range of a compound of the disclosure (0.098 uM-50 uM). Samples were mixed with an equal volume of 2×SDS sample buffer (4% SDS, 20% glycerol, 0.004% bromphenol blue, 125 mM Tris HCl, pH 7.0) to resolve tau monomer and disulfide-finked oligomers on 4-20% gradient polyacrylamide gels (Biorad) along with positive control (non-oligomerized tau target). The gels were stained with Oriole Fluorescent Gel Stain (BioRad) and imaged using the FluorChem R system (Protein Simple). AlphaView software (Protein Simple) was used for quantification of tau monomer and oligomers.

Row | SMILES | IC50 [µM]
1 | Cc1ccc(C(C)(O)CCc2oc3ccc(Br)cc3c2-c2ccc(C)o2)cc1 (stereo not shown) [Ex. 16, 4-(5-Bromo-3-(5-methylfuran-2-yl)benzofuran-2-yl)-2-p-tolylbutane-2-ol] | 1.31
2 | COc1cc(-c2ccc3c(-c4ccc(C)o4)c(CCC(C)=O)oc3c2)ccn1 [Ex. 23, 4-(6-(2-Methoxypyridin-4-yl)-3-(5-methylfuran-2-yl)benzofuran-2-yl)butan-2-one] | 7.18
3 | Cc1ccc(-c2c(CCC(=O)O)oc3ccc(Br)cc23)o1 [Ex. 12, 3-[5-Bromo-3-(5-methyl-furan-2-yl)-benzofuran-2-yl]-propionic Acid] | 22.5
4 | CC(=O)CCc1oc2cc(-c3cccnc3)ccc2c1-c1ccc(F)cc1 [Ex. 31, 4-(3-(4-fluorophenyl)-6-(pyridin-3-yl)benzofuran-2-yl)butan-2-one HCl Salt] | 9.28
5 | CC(=O)CCc1oc2cc(-c3cncnc3)ccc2c1-c1ccc(C)o1 [Ex. 30, 4-(3-(5-methylfuran-2-yl)-6-(pyrimidin-5-yl)benzofuran-2-yl)butan-2-one, di HCl Salt] | 20.4
6 | Cc1ccc(-c2c(CCC(C)(C)O)oc3ccc(Br)cc23)o1 [Ex. 15, 4-(5-Bromo-3-(5-methylfuran-2-yl)benzofuran-2-yl)-2-methylbutan-2-ol] | 1.32
7 | CC(=O)CCc1oc2ccc(-c3cccc(O)c3)cc2c1-c1ccc(C)o1 [Ex. 4, 4-(5-(3-Hydroxyphenyl)-3-(5-methylfuran-2-yl)benzofuran-2-yl)butan-2-one] | 24.1
8 | COc1ccc(-c2ccc3c(-c4ccc(C)o4)c(CCC(C)=O)oc3c2)cn1 [Ex. 28, 4-(6-(6-Methoxypyridin-3-yl)-3-(5-methylfuran-2-yl)benzofuran-2-yl)butan-2-one] | 17.5
9 | CC(=O)CCc1oc2cc(-c3cccnc3)ccc2c1-c1ccc(C)o1 [Ex. 24, 4-(3-(5-methylfuran-2-yl)-6-(pyridin-3-yl)benzofuran-2-yl)butan-2-one] | 11.8
10 | CC(=O)CCc1oc2ccc(-c3cncnc3)cc2c1-c1ccc(C)cc1 [Ex. 29, 4-(5-(pyrimidin-5-yl)-3-p-tolylbenzofuran-2-yl)butan-2-one, di HCl Salt] | 7.38
11 | Cc1ccc(-c2c(CCC(=O)N3CCC(O)CC3)oc3ccc(Br)cc23)o1 [Ex. 13, 3-[5-Bromo-3-(5-methyl-furan-2-yl)-benzofuran-2-yl]-1-(4-hydroxy-piperidin-1-yl)-propan-1-one] | 3.23
12 | COc1cccc(-c2ccc3oc(CCC(C)=O)c(-c4ccc(C)o4)c3c2)c1 [Ex. 5, 4-(5-(3-Methoxyphenyl)-3-(5-methylfuran-2-yl)benzofuran-2-yl)butan-2-one] | 0.364
13 | CC(=O)CCc1oc2ccc(-c3cccs3)cc2c1-c1ccc(C)o1 [Ex. 8, 4-(3-(5-Methylfuran-2-yl)-5-(thiophen-2-yl)benzofuran-2-yl)butan-2-one] | 5.57
14 | COc1ccc(-c2ccc3oc(CCC(C)=O)c(-c4ccc(C)o4)c3c2)cn1 [Ex. 2, 4-(5-(6-Methoxypyridin-3-yl)-3-(5-methylfuran-2-yl)benzofuran-2-yl)butan-2-one] | 4.27
15 | CC(=O)CCc1oc2cc(-c3ccncc3)ccc2c1-c1ccc(C)o1 [Ex. 22, 4-(3-(5-Methylfuran-2-yl)-6-(pyridin-4-yl)benzofuran-2-yl)butan-2-one] | 7.57
16 | CC(=O)CCc1oc2ccc(-c3cccnc3)cc2c1-c1ccc(C)o1 [Ex. 3, 4-(3-(5-Methylfuran-2-yl)-5-(pyridin-3-yl)benzofuran-2-yl)butan-2-one] | 37.1
